According to patent publication US4028185A, “Method for producing L(+)-tartaric acid” (priority 1975, dated 1977):

System: Acinetobacter tartarogenes KB-112
Test: Effect of nonionic surfactant (0.1 %) on conversion of calcium cis-epoxysuccinate to L(+)-tartaric acid
Assay type: cell-based
Conditions: 30° C., 2 days; for Mole Yields (%) of L(+)-tartaric acid: cis-epoxysuccinate 40 % as free acid, particle size 60 micron, not added: 34; for Rate of Residues (%) of cis-epoxysuccinic acid: residue of 12 g as free acid = 100 %, not added: 64
Method: Acinetobacter tartarogenes KB-112 are used to inoculate 30 ml of culture medium, contained in the Erlenmeyer flask of 200 ml-capacity, which culture medium having been set up into such constitution that, to the basic culture medium which is composed of casamino acid (0.05 %), ammonium nitrate (0.1 %), dipotassium hydrogen phosphate (0.2 %), magnesium sulfate (0.05 %), ferrous sulfate (0.001 %), pH 7.0, various sorts of nonionic surfactants are added so that the respective kinds of surface active agents may come to the concentration of 0.1 %. And simultaneously, the crystals of calcium cis-epoxysuccinate (average particle size: 60 micron) is added, in such way that it may come to the final concentration of 40 % counted as the free acid; and the above mixture is subjected to rotatory shake culture at 30° C., and for 2 days, and thence being allowed to exert reaction effect. After the termination of reaction, and the crystals are collected by filtration and, after addition of sulfuric acid, subjected to centrifugal separator to eliminate the solid substances. Subsequently, the quantitative determinations are made, with respect to L(+)-tartaric acid, by depending upon the optical rotation at 436 mμ; and with respect to the remaining cis-epoxysuccinic acid, by using Payne & Williams Method (G. B. Payne and P. H. Williams: Journal of Organic Chemistry, 24, 54, (1959)).

| Compound | Mole Yields (%) of L(+)-tartaric acid [%] | Rate of Residues (%) of cis-epoxysuccinic acid [%] |
| --- | --- | --- |
| CCCCCCCCCCCCCCCCCC(=O)OCC(O)CO (stereo not drawn) [NIKKOL MGS-C, Glyceryl monostearate] | 48 | 47 |
| Propyleneglycol monostearate [NIKKOL PMS-SE] | 46 | 50 |
| Sorbitan monooleate [NIKKOL SR-10] | 45 | 52 |
